Laboratory results published in ChEMBL document CHEMBL3112432, “Synthesis of 5α-cholestan-6-one derivatives and their inhibitory activities of NO production in activated microglia: discovery of a novel neuroinflammation inhibitor” (Bioorg Med Chem Lett, 2014).
Calls of active or inactive are those of the source. The calls are words filed in the database; no cut-off is given here.

Experiments:
[1] = test system: BV-2; assay: Antiinflammatory activity in mouse BV2 cells assessed as inhibition of LPS-stimulated TNF-alpha mRNA expression preincubated for 30 mins followed by LPS-stimulation by RT-PCR analysis; assay type: functional, cell-based
[2] = test system: Mus musculus; assay: Neuroprotective activity in ip dosed mouse middle cerebral artery occlusion model assessed as reduction in infarction volume administered 1 hr prior to onset of ischemia measured after 24 hrs by TTC staining-based microscopic analysis; assay type: functional, organism-based
[3] = test system: BV-2; assay: Antiinflammatory activity in mouse BV2 cells assessed as inhibition of LPS-stimulated iNOS mRNA expression preincubated for 30 mins followed by LPS-stimulation by RT-PCR analysis; assay type: functional, cell-based
[4] = test system: BV-2; assay: Antiinflammatory activity in mouse BV2 cells assessed as inhibition of LPS-stimulated IL-1beta mRNA expression preincubated for 30 mins followed by LPS-stimulation by RT-PCR analysis; assay type: functional, cell-based
[5] = Antiinflammatory activity in LPS-stimulated mouse BV2 cells assessed as inhibition of NO production at 40 uM after 24 hrs by Griess method relative to control; assay type: functional; details: BV-2, 24 h
[6] = test system: BV-2; assay: Antiinflammatory activity in mouse BV2 cells assessed as inhibition of LPS-stimulated COX-2 mRNA expression preincubated for 30 mins followed by LPS-stimulation by RT-PCR analysis; assay type: functional, cell-based
[7] = test system: BV-2; assay: Antiinflammatory activity in LPS-stimulated mouse BV2 cells assessed as inhibition of NO production after 24 hrs by Griess method; assay type: functional, cell-based
[8] = test system: Mus musculus; assay: Neuroprotective activity in mouse middle cerebral artery occlusion model assessed as reduction in activated microglial cells in medial periphery of cortical infarct area at 30 mg/kg, ip administered 1 hr prior to onset of ischemia measured after 24 hrs by Iba-1 staining-based microscopic analysis; assay type: functional, organism-based; parameters: dose 30 mg/kg
[9] = Cytotoxicity against mouse BV2 cells assessed as cell viability at 40 uM after 24 hrs by MTT assay relative to control; assay type: cell-based, BV-2; details: read-out: Activity
[10] = test system: BV-2; assay: Antiinflammatory activity in mouse BV2 cells assessed as inhibition of LPS-stimulated iNOS protein expression at 40 uM preincubated for 30 mins followed by LPS-stimulation measured after 16 hrs by Western blotting analysis; assay type: functional, cell-based
[11] = test system: BV-2; assay: Antiinflammatory activity in mouse BV2 cells assessed as inhibition of LPS-stimulated COX-2 protein expression at 40 uM preincubated for 30 mins followed by LPS-stimulation measured after 16 hrs by Western blotting analysis; assay type: functional, cell-based

With COC(=O)CC[C@@H](C)[C@H]1CC[C@H]2[C@@H]3[C@H](O)C(=O)[C@H]4C[C@H](O)CC[C@]4(C)[C@H]3CC[C@]12C the inhibition [1] was “Dose-dependent effect”, the Activity [2] was “Dose-dependent effect” and the inhibition [3] was “Dose-dependent effect”. The inhibition [4] was “Dose-dependent effect”, the inhibition at 40 µM [5] was 73.6% and the inhibition [6] was “Dose-dependent effect”. For the same compound, the inhibition [7] was “Dose-dependent effect”, the Activity [8] was “Active” and the viability at 24 h, 40 µM [9] was 95.4%. For the same compound, the inhibition [10] was “Active” and the inhibition [11] was “Active”.
